Several values for one entry are separate records, joined by “and”; a condition that tells them apart may be missing. Identical values can stand only once.
Key:
Experiment in all cases: biochemical
Type in all cases: biochemical
various kinases [1] = biological target: various kinases (Homo sapiens, UniProt P35916); conditions: FLT4 (VEGFR3)
various kinases [2] = biological target: various kinases (Homo sapiens, UniProt Q13131)
various kinases [3] = biological target: various kinases (Homo sapiens, UniProt Q04912); conditions: MST1R (RON)
various kinases [4] = biological target: various kinases (Homo sapiens, UniProt P00533, C797S); conditions: EGFR (ErbB1) C797S
various kinases [5] = biological target: various kinases (Homo sapiens, UniProt P49840); conditions: GSK3A (GSK3 alpha)
Chain of various kinases (Homo sapiens, UniProt P49840) (P49840 whole entry): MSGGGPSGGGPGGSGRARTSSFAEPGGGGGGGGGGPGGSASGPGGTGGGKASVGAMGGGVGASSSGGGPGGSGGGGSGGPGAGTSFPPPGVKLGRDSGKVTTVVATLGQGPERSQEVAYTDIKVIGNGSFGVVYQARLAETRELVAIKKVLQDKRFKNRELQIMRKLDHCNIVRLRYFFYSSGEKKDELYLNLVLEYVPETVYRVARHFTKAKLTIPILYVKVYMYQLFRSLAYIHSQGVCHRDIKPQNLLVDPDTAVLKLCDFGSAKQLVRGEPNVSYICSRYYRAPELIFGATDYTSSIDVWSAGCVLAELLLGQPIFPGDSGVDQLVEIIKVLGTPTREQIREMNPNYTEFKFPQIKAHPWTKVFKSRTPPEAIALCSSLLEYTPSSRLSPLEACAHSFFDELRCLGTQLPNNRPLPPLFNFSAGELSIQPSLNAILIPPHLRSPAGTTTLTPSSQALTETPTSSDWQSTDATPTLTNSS

various kinases [6] = biological target: various kinases (Homo sapiens, UniProt P51955); conditions: NEK2
Chain of various kinases (Homo sapiens, UniProt P51955) (P51955 whole entry): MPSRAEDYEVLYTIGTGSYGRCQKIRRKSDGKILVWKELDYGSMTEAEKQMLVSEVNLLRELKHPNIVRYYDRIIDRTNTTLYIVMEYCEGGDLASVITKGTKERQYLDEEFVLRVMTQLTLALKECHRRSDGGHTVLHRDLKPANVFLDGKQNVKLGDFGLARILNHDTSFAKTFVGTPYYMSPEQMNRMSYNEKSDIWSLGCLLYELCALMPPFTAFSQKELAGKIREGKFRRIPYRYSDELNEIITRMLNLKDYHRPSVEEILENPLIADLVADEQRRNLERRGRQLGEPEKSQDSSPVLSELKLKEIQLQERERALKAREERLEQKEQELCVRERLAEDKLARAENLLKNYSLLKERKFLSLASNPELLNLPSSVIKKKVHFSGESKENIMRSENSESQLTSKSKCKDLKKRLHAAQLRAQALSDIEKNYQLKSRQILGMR

various kinases [7] = biological target: various kinases (Homo sapiens, UniProt O15075); conditions: DCAMKL1 (DCLK1)
various kinases [8] = biological target: various kinases (Homo sapiens, UniProt O14920); conditions: IKBKB (IKK beta)
various kinases [9] = biological target: various kinases (Homo sapiens, UniProt P06493); conditions: CDK1/cyclin B
various kinases [10] = biological target: various kinases (Homo sapiens, UniProt P10721, V559D/V654A); conditions: KIT V559D V654A
various kinases [11] = biological target: various kinases (Homo sapiens, UniProt Q12851); conditions: MAP4K2 (GCK)
Chain of various kinases (Homo sapiens, UniProt Q12851) (Q12851 whole entry): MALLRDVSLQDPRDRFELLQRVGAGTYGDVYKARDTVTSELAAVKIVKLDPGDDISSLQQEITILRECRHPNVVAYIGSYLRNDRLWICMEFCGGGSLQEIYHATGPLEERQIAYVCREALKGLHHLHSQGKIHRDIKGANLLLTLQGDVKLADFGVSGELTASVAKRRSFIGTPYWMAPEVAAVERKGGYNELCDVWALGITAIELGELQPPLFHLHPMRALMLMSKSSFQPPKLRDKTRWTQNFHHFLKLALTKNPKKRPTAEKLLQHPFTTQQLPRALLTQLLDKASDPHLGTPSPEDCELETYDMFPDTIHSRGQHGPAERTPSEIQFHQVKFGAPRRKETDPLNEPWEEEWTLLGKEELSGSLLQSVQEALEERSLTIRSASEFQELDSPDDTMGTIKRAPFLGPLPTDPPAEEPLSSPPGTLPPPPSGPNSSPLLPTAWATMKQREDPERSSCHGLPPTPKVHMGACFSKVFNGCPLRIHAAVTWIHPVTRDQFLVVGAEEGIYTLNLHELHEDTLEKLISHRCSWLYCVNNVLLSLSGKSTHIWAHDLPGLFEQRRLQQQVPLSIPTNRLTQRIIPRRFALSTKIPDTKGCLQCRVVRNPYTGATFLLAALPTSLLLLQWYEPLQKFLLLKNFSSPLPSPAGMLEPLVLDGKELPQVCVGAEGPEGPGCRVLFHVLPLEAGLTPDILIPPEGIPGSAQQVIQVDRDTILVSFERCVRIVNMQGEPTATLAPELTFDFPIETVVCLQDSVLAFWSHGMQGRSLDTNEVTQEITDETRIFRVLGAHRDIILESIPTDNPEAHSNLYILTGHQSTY

various kinases [12] = biological target: various kinases (Homo sapiens, UniProt P16234, T674I); conditions: PDGFRA T674I
various kinases [13] = biological target: various kinases (Homo sapiens, UniProt P34947); conditions: GRK5
various kinases [14] = biological target: various kinases (Homo sapiens, UniProt O76039); conditions: CDKL5
various kinases [15] = biological target: various kinases (Homo sapiens, UniProt Q96NX5); conditions: CAMK1G (CAMKI gamma)
various kinases [16] = biological target: various kinases (Homo sapiens, UniProt P24941); conditions: CDK2/cyclin A
various kinases [17] = biological target: various kinases (Homo sapiens, UniProt O15530)
Chain of various kinases (Homo sapiens, UniProt O15530) (O15530 whole entry): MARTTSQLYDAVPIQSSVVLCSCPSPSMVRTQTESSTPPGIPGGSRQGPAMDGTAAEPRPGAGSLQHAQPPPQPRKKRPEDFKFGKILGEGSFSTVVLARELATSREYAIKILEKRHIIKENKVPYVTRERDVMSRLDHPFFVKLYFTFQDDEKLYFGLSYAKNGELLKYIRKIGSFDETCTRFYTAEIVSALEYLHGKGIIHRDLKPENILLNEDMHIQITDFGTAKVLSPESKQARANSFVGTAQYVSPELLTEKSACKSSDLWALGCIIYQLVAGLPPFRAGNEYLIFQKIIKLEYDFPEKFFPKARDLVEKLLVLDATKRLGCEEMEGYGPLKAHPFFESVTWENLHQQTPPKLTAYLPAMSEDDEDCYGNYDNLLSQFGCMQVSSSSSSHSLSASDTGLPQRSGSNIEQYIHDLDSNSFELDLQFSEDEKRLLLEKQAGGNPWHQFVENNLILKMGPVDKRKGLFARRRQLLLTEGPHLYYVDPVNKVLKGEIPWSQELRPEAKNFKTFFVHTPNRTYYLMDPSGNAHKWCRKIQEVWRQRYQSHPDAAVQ

various kinases [18] = biological target: various kinases (Homo sapiens, UniProt Q8NE63); conditions: HIPK4
various kinases [19] = biological target: various kinases (Homo sapiens, UniProt P28482); conditions: MAPK1 (ERK2)
various kinases [20] = biological target: T1, various kinases (Homo sapiens, UniProt Q9BZL6); conditions: kinase PRKD2 (PKD2); ZLYTE
T1 sequence (Q9BZL6 1-878): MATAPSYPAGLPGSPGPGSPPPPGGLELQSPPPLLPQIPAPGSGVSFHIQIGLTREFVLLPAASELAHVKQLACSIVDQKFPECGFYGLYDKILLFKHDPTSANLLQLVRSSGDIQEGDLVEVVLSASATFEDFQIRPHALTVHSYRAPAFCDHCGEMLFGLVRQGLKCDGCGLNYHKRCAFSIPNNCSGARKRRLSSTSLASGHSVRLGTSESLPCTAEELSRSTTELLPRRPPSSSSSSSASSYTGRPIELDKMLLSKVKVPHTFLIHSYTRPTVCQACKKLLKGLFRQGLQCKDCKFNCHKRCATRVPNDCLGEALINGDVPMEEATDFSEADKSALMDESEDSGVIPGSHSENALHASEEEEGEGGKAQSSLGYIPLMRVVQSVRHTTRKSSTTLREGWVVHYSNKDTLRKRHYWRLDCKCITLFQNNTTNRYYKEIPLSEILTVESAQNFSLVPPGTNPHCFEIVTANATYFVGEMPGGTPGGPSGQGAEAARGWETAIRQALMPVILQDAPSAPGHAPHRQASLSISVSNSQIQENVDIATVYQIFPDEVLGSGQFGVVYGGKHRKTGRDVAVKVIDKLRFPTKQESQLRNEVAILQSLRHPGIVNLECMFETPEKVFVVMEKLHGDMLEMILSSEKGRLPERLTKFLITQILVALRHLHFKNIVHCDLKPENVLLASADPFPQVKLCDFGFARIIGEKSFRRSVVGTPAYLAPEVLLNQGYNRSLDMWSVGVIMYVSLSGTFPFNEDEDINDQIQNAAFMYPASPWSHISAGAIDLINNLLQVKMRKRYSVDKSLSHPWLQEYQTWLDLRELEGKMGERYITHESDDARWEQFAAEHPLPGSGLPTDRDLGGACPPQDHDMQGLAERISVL

various kinases [21] = biological target: various kinases (Homo sapiens, UniProt P00519, E255K); conditions: ABL1 E255K
various kinases [22] = biological target: various kinases (Homo sapiens, UniProt P07332); conditions: FES (FPS)
Chain of various kinases (Homo sapiens, UniProt P07332) (P07332 whole entry): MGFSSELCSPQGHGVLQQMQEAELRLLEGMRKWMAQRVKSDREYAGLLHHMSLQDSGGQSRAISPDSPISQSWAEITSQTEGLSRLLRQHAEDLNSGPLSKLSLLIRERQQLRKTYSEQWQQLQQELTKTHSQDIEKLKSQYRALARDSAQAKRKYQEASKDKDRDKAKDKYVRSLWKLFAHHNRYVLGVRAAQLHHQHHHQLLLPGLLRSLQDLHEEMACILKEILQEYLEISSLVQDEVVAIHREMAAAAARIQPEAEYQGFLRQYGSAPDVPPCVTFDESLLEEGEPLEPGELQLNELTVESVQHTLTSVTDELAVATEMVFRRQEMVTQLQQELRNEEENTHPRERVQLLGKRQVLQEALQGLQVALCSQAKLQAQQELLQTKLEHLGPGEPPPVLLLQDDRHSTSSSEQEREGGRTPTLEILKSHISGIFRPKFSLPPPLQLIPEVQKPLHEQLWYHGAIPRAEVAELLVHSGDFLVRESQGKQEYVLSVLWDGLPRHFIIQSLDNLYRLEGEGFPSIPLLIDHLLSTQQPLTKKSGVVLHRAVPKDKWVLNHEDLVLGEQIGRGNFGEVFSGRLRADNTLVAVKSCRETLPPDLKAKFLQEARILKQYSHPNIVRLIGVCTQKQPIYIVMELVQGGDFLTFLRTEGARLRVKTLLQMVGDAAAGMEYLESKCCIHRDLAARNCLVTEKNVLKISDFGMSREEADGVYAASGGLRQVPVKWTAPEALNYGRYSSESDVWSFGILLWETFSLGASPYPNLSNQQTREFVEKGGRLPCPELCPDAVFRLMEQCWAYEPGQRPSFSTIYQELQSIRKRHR

various kinases [23] = biological target: various kinases (Homo sapiens, UniProt P07949, Y791F); conditions: kinase RET Y791F; ZLYTE
Chain of various kinases (Homo sapiens, UniProt P07949, Y791F) (P07949 29-1114 Y791F): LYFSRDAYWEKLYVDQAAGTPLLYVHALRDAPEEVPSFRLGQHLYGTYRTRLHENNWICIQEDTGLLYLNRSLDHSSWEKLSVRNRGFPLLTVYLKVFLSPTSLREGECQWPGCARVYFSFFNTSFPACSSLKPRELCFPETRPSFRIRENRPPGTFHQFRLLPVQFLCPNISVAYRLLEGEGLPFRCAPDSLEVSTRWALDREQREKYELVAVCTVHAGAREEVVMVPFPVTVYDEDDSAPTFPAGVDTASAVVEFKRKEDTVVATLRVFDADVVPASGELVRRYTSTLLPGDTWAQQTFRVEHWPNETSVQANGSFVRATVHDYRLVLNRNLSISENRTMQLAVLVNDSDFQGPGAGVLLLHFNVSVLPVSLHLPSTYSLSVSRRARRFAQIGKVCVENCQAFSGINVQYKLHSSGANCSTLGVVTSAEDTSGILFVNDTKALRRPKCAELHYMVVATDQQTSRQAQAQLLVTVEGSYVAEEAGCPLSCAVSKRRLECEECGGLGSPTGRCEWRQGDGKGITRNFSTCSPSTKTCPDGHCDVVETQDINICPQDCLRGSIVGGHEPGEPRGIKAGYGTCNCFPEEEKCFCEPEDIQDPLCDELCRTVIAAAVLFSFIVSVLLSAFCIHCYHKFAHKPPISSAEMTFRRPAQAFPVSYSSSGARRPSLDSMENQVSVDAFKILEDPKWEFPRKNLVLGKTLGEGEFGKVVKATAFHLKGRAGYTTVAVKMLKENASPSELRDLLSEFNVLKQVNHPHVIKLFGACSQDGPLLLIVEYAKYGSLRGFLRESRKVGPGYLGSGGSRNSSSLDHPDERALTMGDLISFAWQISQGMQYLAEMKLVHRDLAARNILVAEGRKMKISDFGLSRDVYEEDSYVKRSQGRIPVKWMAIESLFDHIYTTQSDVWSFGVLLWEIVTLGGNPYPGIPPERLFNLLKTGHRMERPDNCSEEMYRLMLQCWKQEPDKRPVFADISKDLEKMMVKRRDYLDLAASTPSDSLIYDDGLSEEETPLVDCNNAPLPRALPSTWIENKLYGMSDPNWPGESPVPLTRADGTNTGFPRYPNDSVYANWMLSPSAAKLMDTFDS

various kinases [24] = biological target: various kinases (Homo sapiens, UniProt Q9Y4K4); conditions: MAP4K5 (KHS1)
various kinases [25] = biological target: various kinases (Homo sapiens, UniProt P27361); conditions: MAPK3 (ERK1)
various kinases [26] = biological target: various kinases (Homo sapiens, UniProt Q8TDX7); conditions: NEK7
various kinases [27] = biological target: various kinases (Homo sapiens, UniProt Q9Y463); conditions: DYRK1B
various kinases [28] = biological target: various kinases (Homo sapiens, UniProt Q9BUB5); conditions: MKNK1 (MNK1)
Wherever % Inhibition Average is given: test concentration or dose not given here.
Wherever % Inhibition Duplicate #1 is given: test concentration or dose not given here.
Wherever % Inhibition Duplicate #2 is given: test concentration or dose not given here.

Chain of various kinases (Homo sapiens, UniProt Q13131) (Q13131 whole entry): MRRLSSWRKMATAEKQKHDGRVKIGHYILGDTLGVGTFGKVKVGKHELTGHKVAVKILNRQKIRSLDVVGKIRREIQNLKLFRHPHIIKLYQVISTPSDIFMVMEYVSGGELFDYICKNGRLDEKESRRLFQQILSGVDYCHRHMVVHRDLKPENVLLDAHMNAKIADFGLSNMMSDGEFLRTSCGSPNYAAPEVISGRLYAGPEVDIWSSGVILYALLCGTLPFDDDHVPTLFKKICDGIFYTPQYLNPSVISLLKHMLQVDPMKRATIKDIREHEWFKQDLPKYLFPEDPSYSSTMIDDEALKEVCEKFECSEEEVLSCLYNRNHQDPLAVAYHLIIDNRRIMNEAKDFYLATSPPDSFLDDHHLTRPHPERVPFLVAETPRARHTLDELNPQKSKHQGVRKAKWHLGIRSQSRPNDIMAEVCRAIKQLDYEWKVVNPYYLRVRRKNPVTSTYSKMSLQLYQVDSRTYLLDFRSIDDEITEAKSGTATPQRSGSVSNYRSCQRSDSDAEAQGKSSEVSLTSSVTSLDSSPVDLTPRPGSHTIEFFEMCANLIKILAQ

COc1ccc2c(c1)[C@]1(C[C@H]1c1ccc3c(/C=C/c4ccc(CN5C[C@@H](C)O[C@@H](C)C5)cc4)n[nH]c3c1)C(=O)N2 [CFI-400945]
% Inhibition (various kinases [1]): 6% and 8% | % Inhibition (various kinases [2]; AMPK (A1/B2/G2)): 25% and 20% | % Inhibition (various kinases [2]; AMPK (A1/B2/G3)): 13% and 21% | % Inhibition (various kinases [2]; AMPK A1/B1/G1): 14% and 9% | % Inhibition (various kinases [3]): 8% and 9% | % Inhibition (various kinases [4]): 11% and 5% | % Inhibition (various kinases [5]): 3% and 4% | % Inhibition (various kinases [6]): -1% and 1% | % Inhibition (various kinases [7]): -2% | % Inhibition (various kinases [8]): 5% and 4% | % Inhibition (various kinases [9]): 16% and 12% | % Inhibition (various kinases [10]): 5% and 6% | % Inhibition (various kinases [11]): 43% and 39% | % Inhibition (various kinases [12]): 1% and 2% | % Inhibition (various kinases [13]): 5% and 3% | % Inhibition (various kinases [14]): 5% | % Inhibition (various kinases [15]): -3% and 2% | % Inhibition (various kinases [16]): 7% and 2% | % Inhibition (various kinases [17]; PDK1): 3% and 2% | % Inhibition (various kinases [17]; PDK1 Direct): 6% | % Inhibition (various kinases [18]): -1% and 2% | % Inhibition (various kinases [19]): 9% and 7% | % Inhibition Average (various kinases [20]): 2% | % Inhibition Duplicate #1 (various kinases [20]): 0% | % Inhibition Duplicate #2 (various kinases [20]): 4% | % Inhibition (various kinases [21]): 39% and 36% | % Inhibition (various kinases [22]): 13% and 10% | % Inhibition Average (various kinases [23]): 14% | % Inhibition Duplicate #1 (various kinases [23]): 13% | % Inhibition Duplicate #2 (various kinases [23]): 14% | % Inhibition (various kinases [24]): 12% and 23% | % Inhibition (various kinases [25]): 4% | % Inhibition (various kinases [26]): 0% and 6% | % Inhibition (various kinases [27]): -1% and -5% | % Inhibition (various kinases [28]): 6% and 1%
